What was measured:
[1] = molecular target: Phosphoglycerate mutase 1 (Homo sapiens, UniProt P18669); assay: Inhibition of PGAM1 (unknown origin)
NCI-H1299 = assay: Antiproliferative activity against human NCI-H1299 cells assessed as inhibition of cell proliferation; format: functional, cell-based

Phosphoglycerate mutase 1, sequence (P18669 whole entry): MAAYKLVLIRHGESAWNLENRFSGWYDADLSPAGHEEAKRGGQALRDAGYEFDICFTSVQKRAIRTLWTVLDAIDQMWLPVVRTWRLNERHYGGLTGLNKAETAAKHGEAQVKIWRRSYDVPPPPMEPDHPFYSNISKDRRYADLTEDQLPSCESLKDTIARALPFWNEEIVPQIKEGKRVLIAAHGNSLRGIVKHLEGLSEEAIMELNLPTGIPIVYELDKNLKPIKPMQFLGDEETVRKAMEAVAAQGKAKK

| Compound | IC50 [1] [µM] | EC50 (NCI-H1299) [µM] |
| --- | --- | --- |
| CCCc1c(O)c(O)cc2oc3cc(O)cc(O)c3c(=O)c12 | 20 | – |
| COc1c(OCCN(C)C)cc2oc3cc(OCCN(C)C)c(CC=C(C)C)c(O)c3c(=O)c2c1CC=C(C)C | > 20 | – |
| CCCCOc1cc(O)cc2oc3cc(O)c(O)cc3c(=O)c12 | 12.8 | 60 |
| COc1c(OCCO)cc2oc3cc(OCCO)c(CC=C(C)C)c(O)c3c(=O)c2c1CC=C(C)C | > 20 | – |
| COc1c(OCC(=O)N(C)C)cc2oc3cc(OCC(=O)N(C)C)c(CC=C(C)C)c(O)c3c(=O)c2c1CC=C(C)C | > 20 | – |
| COc1cc(O)c2c(=O)c3c(CCCc4ccccc4)c(O)c(OC)cc3oc2c1 | > 20 | – |
| O=C1c2ccccc2C(=O)c2c1cc(S(=O)(=O)Nc1ccc(C(F)(F)F)cc1)c(O)c2O | – | 26.2 |
| COc1c(O)cc2oc3cc(O)c(CC=C(C)C)c(O)c3c(=O)c2c1CC=C(C)C [MANGOSTIN] | 7.2 | – |
| O=c1c2cc(O)c(O)cc2oc2cc(O)cc(OCCCCN3CCCCC3)c12 | > 20 | – |
| O=c1c2cc(O)c(O)cc2oc2cc(O)cc(OCCCCN3CCc4ccccc43)c12 | 5.7 | 28.1 |
| CCNC(=O)Oc1cc2oc3cc(OC(=O)NCC)c(OC)c(CC=C(C)C)c3c(=O)c2c(O)c1CC=C(C)C | > 20 | – |
| COc1c(OCCN2CCN(C)CC2)cc2oc3cc(OCCN4CCN(C)CC4)c(CC=C(C)C)c(O)c3c(=O)c2c1CC=C(C)C | > 20 | – |
| CCCCCCCCOc1cc(O)cc2oc3cc(O)c(O)cc3c(=O)c12 | 2.8 | 3.4 |
| O=c1c2c(O)cc(O)cc2oc2cc(O)c(O)c(CCCc3ccccc3)c12 | 1.5 | 41.6 |
| CCCCC=CCc1c(O)c(O)cc2oc3cc(O)cc(O)c3c(=O)c12 | 2.8 | 13.5 |
| O=C(CCCOc1cc(O)cc2oc3cc(O)c(O)cc3c(=O)c12)N1CCCCC1 | > 20 | – |
| CC(C)=CCc1c(O)c(O)cc2oc3cc(O)cc(O)c3c(=O)c12 | 3.4 | 47.7 |
| CC(C)=CCc1c(O)cc2oc3cc(O)c(O)c(CC=C(C)C)c3c(=O)c2c1O | 1.9 | 2.2 |
| O=c1c2ccccc2oc2ccccc12 [XANTHONE] | 0.5 | – |
| COc1c(OC(=O)NC(C)C)cc2oc3cc(OC(=O)NC(C)C)c(CC=C(C)C)c(O)c3c(=O)c2c1CC=C(C)C | > 20 | – |

— ChEMBL document CHEMBL4706677, “Design, synthesis, and biological evaluation of 1,3,6,7-tetrahydroxyxanthone derivatives as phosphoglycerate mutase 1 inhibitors” (Bioorg Med Chem Lett, 2021)
